Measurements from patent US9216980B2, “Methods of use of diazacarbazoles for treating cancer” (Genentech, Inc., priority 2008, dated 2015).

Tested on: HT-29
Experiment: Cellular assay (checkpoint abrogation), phospho-Histone H3
Format: cell-based
Conditions: Homo sapiens; HT-29 cells, 20 nM SN-38 for 16 h, then 300 nM nocodazole plus compound for 24 h; phospho-Histone H3 levels; read-out: EC50 in the assay described in EXAMPLE ii
Description: Compounds are tested in a cellular assay using the human colorectal adenocarcinoma derived cell line HT-29 (ATCC HTB-38).
The cell line is maintained in DMEM/F12 (1:1) media (Invitrogen Gibco, #31331) supplemented with 10% FCS at 37° C. in a 5% CO2 humidified incubator.
Cells are seeded in 96-well plates at 30,000 cells/well and after 24 h they are exposed to 20 nM SN-38 in 0.4% DMSO. One column of 8 wells on each plate was used to generate a maximum signal control. These cells are treated with 0.4% DMSO without SN-38. Cells are grown for a further 16 h, then the media containing DMSO plus or minus SN-38 is removed and replaced with media containing 300 nM nocodazole alone (to determine baseline) or in combination with ten concentrations of chk1 inhibitor (final DMSO concentration is 0.4%). Cells are grown for a further 24 h. The media is removed and replaced with 50 μl lysis buffer containing protease inhibitors and phosphatase inhibitors. This buffer contains detergent to bring about cellular disruption. […] Following the transfer of lysate to the MSD plate, Histone H3 in the lysate is captured on the coated antibody by incubation at room temperature for 2 h. Following the capture step the plate is washed and then incubated with an antibody to phosphorylated Histone H3 which is conjugated with a Sulfo-Tag. This tag gives a signal when in proximity to the electrode on the base of the MSD plate. Binding the tagged antibody to the captured protein allow detection on a MSD reader.
EC50 values are calculated using the XLfit software package (version 2.0.5) or Graphpad Prism, (version 3.03) fitting a sigmoidal curve with a variable slope.

Compound | EC50
N#Cc1cc2c(cn1)[nH]c1ncc(C#CC3CCCNC3)cc12 (centres unmarked) [Example 119, 3-Piperidin-3-ylethynyl-9H-dipyrido[2,3-b;4′,3′-d]pyrrole-6-carbonitrile] | < 10 µM
N#Cc1cc2c(cn1)[nH]c1ncc(Cl)cc12 [Example 214, 3-Chloro-9H-dipyrido[2,3-b;4′,3′-d]pyrrole-6-carbonitrile] | < 10 µM
Cn1nncc1-c1cc2c(cn1)[nH]c1ncc(-c3ccc(CN4CCCCC4)cc3)cc12 [Example 368, 6-(1-Methyl-1H-1,2,3-triazol-5-yl)-3-(4-piperidin-1-ylmethyl-phenyl)-9H-dipyrido[2,3-b;4′,3′-d]pyrrole] | < 10 µM
c1cn(-c2cc3c(cn2)[nH]c2ncc(-c4ccc(CN5CCCCC5)cc4)cc23)cn1 [Example 366, 3-(4-Piperidin-1-ylmethyl-phenyl)-6-(1H-imidazol-1-yl)-9H-dipyrido[2,3-b;4′,3′-d]pyrrole] | < 10 µM
N#Cc1cc2c(cn1)[nH]c1ncc(-c3cnn(CCN4CCOCC4)c3)cc12 [Example 127, 3-[1-(2-Morpholin-4-yl-ethyl)-1H-pyrazol-4-yl]-9H-dipyrido[2,3-b;4′,3′-d]pyrrole-6-carbonitrile] | < 10 µM
CN1CCN(c2ccc(-c3cnc4[nH]c5cnc(C#N)cc5c4c3)cc2)CC1 [Example 125, 3-[4-(4-Methyl-piperazin-1-yl)-phenyl]-9H-dipyrido[2,3-b;4′,3′-d]pyrrole-6-carbonitrile] | < 10 µM
CN1CCC(c2ccc(-c3cnc4[nH]c5cnc(C#N)cc5c4c3)cc2)CC1 [Example 1, 3-[4-(1-Methyl-piperidin-4-yl)-phenyl]-9H-dipyrido[2,3-b;4′,3′-d]pyrrole-6-carbonitrile] | < 10 µM

Next, values leading:

EC50 | Compound
< 10 µM | N#Cc1cc2c(cn1)[nH]c1ncc(-c3cccs3)cc12 [Example 160, 3-Thiophen-2-yl-9H-dipyrido[2,3-b;4′,3′-d]pyrrole-6-carbonitrile]
< 10 µM | CC(=O)Nc1cccc(-c2cnc3[nH]c4cnc(C#N)cc4c3c2)c1 [Example 138, N-[3-(6-Cyano-9H-dipyrido[2,3-b;4′,3′-d]pyrrol-3-yl)-phenyl]-acetamide]
< 10 µM | N#Cc1cc2c(cn1)[nH]c1ncc(-c3ccc(CO)cc3)cc12 [Example 157, 3-(4-Hydroxymethyl-phenyl)-9H-dipyrido[2,3-b;4′,3′-d]pyrrole-6-carbonitrile]
< 10 µM | CC(=O)Nc1ccc(-c2cnc3[nH]c4cnc(C#N)cc4c3c2)cc1 [Example 186, N-[4-(6-Cyano-9H-dipyrido[2,3-b;4′,3′-d]pyrrol-3-yl)-phenyl]-acetamide]
< 10 µM | CC(C)Oc1ccc(-c2cnc3[nH]c4cnc(C#N)cc4c3c2)cc1 [Example 135, 3-(4-Isopropoxy-phenyl)-9H-dipyrido[2,3-b;4′,3′-d]pyrrole-6-carbonitrile]
< 10 µM | COc1ccc(-c2cnc3[nH]c4cnc(C#N)cc4c3c2)cc1OC [Example 176, 9H-dipyrido[2,3-b;4′,3′-d]pyrrole-6-carbonitrile]
< 10 µM | Cn1ccc(-c2cnc3[nH]c4cnc(C#N)cc4c3c2)n1 [Example 80, 3-(1-Methyl-1H-pyrazol-3-yl)-9H-dipyrido[2,3-b;4′,3′-d]pyrrole-6-carbonitrile]
< 10 µM | N#Cc1cc2c(cn1)[nH]c1ncc(-c3cccc(N)c3)cc12 [Example 166, 3-(3-Amino-phenyl)-9H-dipyrido[2,3-b;4′,3′-d]pyrrole-6-carbonitrile]
< 10 µM | CN(C)S(=O)(=O)c1cccc(-c2cnc3[nH]c4cnc(C#N)cc4c3c2)c1 [Example 190, 3-(6-Cyano-9H-dipyrido[2,3-b;4′,3′-d]pyrrol-3-yl)-N,N-dimethyl-benzenesulfonamide]
< 10 µM | CS(=O)(=O)c1cccc(-c2cnc3[nH]c4cnc(C#N)cc4c3c2)c1 [Example 188, 3-(3-Methanesulfonyl-phenyl)-9H-dipyrido[2,3-b;4′,3′-d]pyrrole-6-carbonitrile]
